Data from PubChem BioAssay AID1259408 (Genetic Toxicology Data Bank (GENE-TOX), 2018).
The source made the active and inactive calls. How the calls were made is not given here.

Test system: GENE-TOX genotoxicity assays, various organisms and cells
Test: GENE-TOX mutagenicity studies
Settings: for call: Assay Type: In vivo carcinogenicity studies
[1] = Species/Cell Type: Nonhuman, Assay Type: Sister-chromatid exchange (SCE) in vitro, Assay Code: SC2+, Evaluation Type: Evaluation B (Post-1980)
[2] = Species/Cell Type: Salmonella typhimurium (one or more of the five standard strains: TA98, TA100, TA1535, TA1537, and TA1538), Assay Type: Histidine reverse gene mutation, Ames assay, Assay Code: SAL-, Evaluation Type: Evaluation A (Pre-1980)
[3] = Species/Cell Type: Salmonella typhimurium (one or more of the five standard strains: TA98, TA100, TA1535, TA1537, and TA1538), Assay Type: Histidine reverse gene mutation, Ames assay, Assay Code: SALT, Evaluation Type: Evaluation A (Pre-1980)
[4] = Species/Cell Type: Chinese hamster ovary (CHO) cells, Assay Type: Forward gene mutation at the HPRT locus, Assay Code: CHO+, Evaluation Type: Evaluation B (Post-1980)
[5] = Species/Cell Type: Salmonella typhimurium (one or more of the five standard strains: TA98, TA100, TA1535, TA1537, and TA1538), Assay Type: Histidine reverse gene mutation, Ames assay, Assay Code: SAL+*, Activation: With metabolic activation, Evaluation Type: Evaluation A (Pre-1980)
[6] = Species/Cell Type: Nonhuman, Assay Type: Sister-chromatid exchange (SCE) in vivo, Assay Code: SC3+, Evaluation Type: Evaluation B (Post-1980)
[7] = Species/Cell Type: Rodents, Sex: Male, Assay Type: Dominant lethal test, Assay Code: DLT+, Evaluation Type: Evaluation A (Pre-1980)
[8] = Species/Cell Type: Nonhuman, Assay Code: CCG+, Evaluation Type: Evaluation A (Pre-1980)
[9] = Species/Cell Type: Salmonella typhimurium (one or more of the five standard strains: TA98, TA100, TA1535, TA1537, and TA1538), Assay Type: Histidine reverse gene mutation, Ames assay, Assay Code: SAL+, Evaluation Type: Evaluation A (Pre-1980)

CN1CCC[C@H]1c1cccnc1
mutagenic call (Species/Cell Type: Neurospora crassa, Assay Type: Aneuploidy, chromosome aberrations, Assay Code: NEN-, Evaluation Type: Evaluation A (Pre-1980)): inactive; negative | mutagenic call [1]: active; positive | mutagenic call [2]: inactive; negative

O=C(O)C(=O)c1ccc(Cl)cc1
mutagenic call (Species/Cell Type: Nonhuman, Assay Type: Sister-chromatid exchange (SCE) in vitro, Assay Code: SC2-, Evaluation Type: Evaluation B (Post-1980)): inactive; negative

O=C(O)C1(O)C[C@@H](O)C(O)[C@H](O)C1 (stereo not given in full)
mutagenic call [2]: inactive; negative

Cc1c(N)cccc1N
call (Species/Cell Type: Nonhuman, Assay Code: CCG-, Evaluation Type: Evaluation A (Pre-1980)): inactive; negative

NS(=O)(=O)c1cc2c(cc1Cl)NC=NS2(=O)=O
mutagenic call [3]: no conclusion

Cc1c2cc[n+](C)cc2c(C)c2c1[nH]c1ccc(O)cc12
mutagenic call [4]: active; positive

O=S(=O)(O)c1cc(S(=O)(=O)O)c2c(N=Nc3ccccc3)c(O)ccc2c1
mutagenic call (Species/Cell Type: Bacillus subtilis (H17 vs M45), Assay Type: Rec-assay, spot test, DNA effects (bacterial DNA repair), Assay Code: REWT, Evaluation Type: Evaluation A (Pre-1980)): no conclusion

CCCCOc1ccc2nc3cc(Cl)ccc3c(NCCCNCCCl)c2n1
mutagenic call [4]: active; positive

Nc1ccc(F)cc1
mutagenic call (Species/Cell Type: Mouse, Sex: Male, Assay Type: Sperm morphology, Assay Code: SPI-, Evaluation Type: Evaluation A (Pre-1980)): inactive; negative

Cc1ccc2ncccc2c1
mutagenic call [5]: active; positive

NNCCc1ccccc1
mutagenic call (Species/Cell Type: Human, Sex: Male, Assay Type: Sperm morphology, Assay Code: SPHT, Evaluation Type: Evaluation A (Pre-1980)): no conclusion | mutagenic call [6]: active; positive

Cc1cccc(O)c1C
mutagenic call (Species/Cell Type: Human lymphocytes, Assay Type: Sister-chromatid exchange (SCE) in vitro, Assay Code: SCLT, Evaluation Type: Evaluation B (Post-1980)): no conclusion | mutagenic call (Species/Cell Type: Human, Assay Type: Sister-chromatid exchange (SCE) in vitro, Assay Code: SC1T, Evaluation Type: Evaluation B (Post-1980)): no conclusion

Nc1nc2c(ncn2[C@H]2C[C@H](O)[C@@H](CO)O2)c(=O)[nH]1
mutagenic call (Species/Cell Type: Glycine max (soybean), Assay Type: Gene mutation, Assay Code: GLM-, Evaluation Type: Evaluation A (Pre-1980)): inactive; negative

CCOC(=O)CCCCC(=O)OCC
mutagenic call [7]: active; positive

NCl
mutagenic call (Species/Cell Type: Mammalian polychromatic erythrocytes, Assay Type: Micronucleus test, chromosome aberrations, Assay Code: MNTT, Evaluation Type: Evaluation B (Post-1980)): no conclusion

C[C@@H]1Cc2c(Cl)cc(C(=O)NC(Cc3ccccc3)C(=O)O)c(O)c2C(=O)O1 (stereo not given in full)
mutagenic call (Species/Cell Type: Nonhuman, Assay Type: Sister-chromatid exchange (SCE) in vivo, Assay Code: SC3-, Evaluation Type: Evaluation B (Post-1980)): inactive; negative

COc1cc(C(=O)CCN2CCCC2)ccc1O
mutagenic call (Species/Cell Type: Salmonella typhimurium, Assay Type: Forward and reverse gene mutation, host-mediated assay, Assay Code: HMAT, Evaluation Type: Evaluation A (Pre-1980)): no conclusion

CC(C)(Oc1ccc(C2CCCc3ccccc32)cc1)C(=O)O (stereo not given)
call [8]: active; positive

CCN(CC)CC[NH+]([O-])c1ccc(C)c2sc3cc(Cl)ccc3c(=O)c12 (stereo not given)
mutagenic call [5]: active; positive

O=C(COc1ccc(Br)cc1CN1CCCCC1)N/N=C/c1ccccc1O
mutagenic call (Species/Cell Type: Saccharomyces cerevisiae, Assay Type: Reverse gene mutation, Assay Code: YERT, Evaluation Type: Evaluation A (Pre-1980)): no conclusion

CN(C)CCCN1c2ccccc2Sc2ccc(C(F)(F)F)cc21
mutagenic call (Species/Cell Type: Nonhuman bone marrow, Assay Type: Chromosome aberrations, in vivo, Assay Code: CY#-, Evaluation Type: Evaluation A (Pre-1980)): inactive; negative | mutagenic call (Species/Cell Type: Nonhuman, Assay Type: Chromosome aberrations in vitro, Assay Code: CY&+, Evaluation Type: Evaluation A (Pre-1980)): active; positive | mutagenic call [7]: active; positive | mutagenic call (Species/Cell Type: Salmonella typhimurium, Assay Type: Forward and reverse gene mutation, host-mediated assay, Assay Code: HMA-, Evaluation Type: Evaluation A (Pre-1980)): inactive; negative

FC(F)(Cl)Br
mutagenic call (Species/Cell Type: Mammalian polychromatic erythrocytes, Assay Type: Micronucleus test, chromosome aberrations, Assay Code: MNT-, Evaluation Type: Evaluation B (Post-1980)): inactive; negative

O[C@@H]1[C@@H](O)[C@@H](O)c2c(cc3ccc4cccc5ccc2c3c45)[C@H]1O
mutagenic call (Species/Cell Type: Chinese hamster lung (V79) cells, Assay Type: Forward gene mutation at the HPRT or ouabain locus, Assay Code: V79-*, Activation: With metabolic activation, Evaluation Type: Evaluation A (Pre-1980)): inactive; negative

O=c1[nH]c2c(c(=O)n1C1CCCCC1)CCC2 (tested in a mixture with another compound)
mutagenic call (Species/Cell Type: Saccharomyces cerevisiae, Assay Type: Mitotic recombination or gene conversion, Assay Code: YEC-, Evaluation Type: Evaluation A (Pre-1980)): inactive; negative

O=C(O)c1ccccc1N=Nc1ccc(N(CCCl)CCCl)cc1
mutagenic call (Species/Cell Type: Drosophila melanogaster, Assay Type: Sex-linked recessive lethal gene mutation, Assay Code: SRL+, Evaluation Type: Evaluation A (Pre-1980)): active; positive

ClCC(Br)CBr (stereo not given)
mutagenic call (Species/Cell Type: Escherichia coli polA (W3119 vs P3478), Assay Type: Rec-assay, DNA effects (bacterial DNA repair), Assay Code: RE1+, Evaluation Type: Evaluation A (Pre-1980)): active; positive | mutagenic call (Species/Cell Type: Human, Sex: Male, Assay Type: Sperm morphology, Assay Code: SPH+, Evaluation Type: Evaluation A (Pre-1980)): active; positive | call [8]: active; positive | mutagenic call (Species/Cell Type: Nonhuman, Assay Type: Sister-chromatid exchange (SCE) in vitro, Assay Code: SC2+D, Dose Response: With dose response, Evaluation Type: Evaluation B (Post-1980)): active; positive | mutagenic call [9]: active; positive | mutagenic call (Species/Cell Type: Salmonella typhimurium, Assay Type: Forward and reverse gene mutation, body fluid assay, Assay Code: BFU-, Evaluation Type: Evaluation A (Pre-1980)): inactive; negative

[Cl][Pb][Cl]
mutagenic call (Species/Cell Type: Bacillus subtilis (H17 vs M45), Assay Type: Rec-assay, spot test, DNA effects (bacterial DNA repair), Assay Code: REW-, Evaluation Type: Evaluation A (Pre-1980)): inactive; negative

O=C(O)[C@H]1O[C@@H](N(O)c2ccc(-c3ccccc3)cc2)[C@H](O)[C@@H](O)[C@@H]1O
mutagenic call [9]: active; positive

C=C(C)CC(C)(C)C
mutagenic call [3]: no conclusion

c1ccc2cc3c(ccc4ccccc43)cc2c1
mutagenic call (Species/Cell Type: Chinese hamster lung (V79) cells, Assay Type: Forward gene mutation at the HPRT or ouabain locus, Assay Code: V79+*, Activation: With metabolic activation, Evaluation Type: Evaluation A (Pre-1980)): active; positive | mutagenic call (Species/Cell Type: Drosophila melanogaster, Assay Type: Sex-linked recessive lethal gene mutation, Assay Code: SRLT, Evaluation Type: Evaluation A (Pre-1980)): no conclusion | mutagenic call (Species/Cell Type: Escherichia coli polA (W3119 vs P3478), Assay Type: Rec-assay, DNA effects (bacterial DNA repair), Assay Code: RE1T, Evaluation Type: Evaluation A (Pre-1980)): no conclusion | mutagenic call (Species/Cell Type: Fischer rat embryo (RLV/1706) cells, Assay Type: Cell transformation, viral enhanced, Assay Code: CTR+, Evaluation Type: Evaluation A (Pre-1980)): active; positive | mutagenic call (Species/Cell Type: Human diploid fibroblasts, Assay Type: Unscheduled DNA synthesis (UDS) in vitro, DNA effects, Assay Code: UDHT, Evaluation Type: Evaluation A (Pre-1980)): no conclusion | mutagenic call (Species/Cell Type: Mouse (BALB/c-3T3) cells, Assay Type: Cell transformation, Assay Code: CTB-, Evaluation Type: Evaluation A (Pre-1980)): inactive; negative | mutagenic call (Species/Cell Type: Mouse prostate cells, Assay Type: Cell transformation, Assay Code: CTM+, Evaluation Type: Evaluation A (Pre-1980)): active; positive | call [8]: active; positive | mutagenic call [1]: active; positive | mutagenic call [6]: active; positive | mutagenic call (Species/Cell Type: Nonhuman, Assay Type: Sister-chromatid exchange (SCE) in vivo, Assay Code: SC3T, Evaluation Type: Evaluation A (Pre-1980)): no conclusion | mutagenic call (Species/Cell Type: Rat primary hepatocytes, Assay Type: Unscheduled DNA synthesis (UDS) in vitro, DNA effects, Assay Code: UDP-, Evaluation Type: Evaluation A (Pre-1980)): inactive; negative | mutagenic call (Species/Cell Type: Saccharomyces cerevisiae, Assay Type: Mitotic recombination or gene conversion, Assay Code: YEH-, Evaluation Type: Evaluation A (Pre-1980)): inactive; negative | mutagenic call [5]: active; positive | mutagenic call (Species/Cell Type: Salmonella typhimurium, Assay Type: Forward and reverse gene mutation, host-mediated assay, Assay Code: HMA+, Evaluation Type: Evaluation A (Pre-1980)): active; positive | mutagenic call (Species/Cell Type: Syrian hamster embryo (SHE) cells, Assay Type: Cell transformation, clonal assay, Assay Code: CTC+, Evaluation Type: Evaluation A (Pre-1980)): active; positive

NC(=O)c1ccccc1
mutagenic call (Species/Cell Type: Human, Assay Type: Sister-chromatid exchange (SCE) in vitro, Assay Code: SC1+, Evaluation Type: Evaluation B (Post-1980)): active; positive | mutagenic call (Species/Cell Type: Mammalian polychromatic erythrocytes, Assay Type: Micronucleus test, chromosome aberrations, Assay Code: MNT+U, Dose Response: Unconfirmed positive response, Evaluation Type: Evaluation B (Post-1980)): active; positive | mutagenic call [1]: active; positive
